Data from BindingDB's records for doi:10.1016/0960-894X(95)00037-T (1995).
pKi: −log10 of the molar value.

What was measured:
[1] = target: T1, B2 bradykinin receptor (Homo sapiens, UniProt P30411); assay: ChEBML_40431
T1 sequence (P30411 whole entry): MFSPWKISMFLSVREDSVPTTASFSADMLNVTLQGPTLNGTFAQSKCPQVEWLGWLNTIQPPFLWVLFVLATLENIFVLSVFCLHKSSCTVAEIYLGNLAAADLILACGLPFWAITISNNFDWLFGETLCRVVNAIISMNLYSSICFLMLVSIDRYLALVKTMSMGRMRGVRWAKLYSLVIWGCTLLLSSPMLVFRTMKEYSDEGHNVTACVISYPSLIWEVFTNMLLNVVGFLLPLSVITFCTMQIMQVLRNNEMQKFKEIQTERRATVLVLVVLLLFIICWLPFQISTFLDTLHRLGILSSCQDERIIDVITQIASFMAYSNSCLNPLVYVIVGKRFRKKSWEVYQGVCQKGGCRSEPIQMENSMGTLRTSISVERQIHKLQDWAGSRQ
From the text: (§1) Tested for binding affinity against human IMR-90 Bradykinin receptor B2

[2] = target: T1, B2 bradykinin receptor; assay: as §1

pKi [1]: 6.00 | pKi [2]: 6.00
SMILES: CCCC[P+](CCCC)(CCCC)Cc1ccc(NC(=O)C2Cc3ccccc3CN2C(=O)[C@H](CCc2ccccc2)N/C(=N/C2CCCCC2)NC2CCCCC2)cc1 (stereo partly drawn) [tributyl[(4-{2-[(2S)-2-{[(1E)-(cyclohexylamino)(cyclohexyliminiumyl)methyl]amino}-4-phenylbutanoyl]-1,2,3,4-tetrahydroisoquinoline-3-amido}phenyl)methyl]phosphanium dichloride]
